Laboratory results reported in patent US10519152B2, “Compounds and their use in treating cancer” (AstraZeneca AB, priority 2017, dated 2019).

Columns and labels:
[1] = target: T1, Estrogen Receptor (ERα) in MCF-7 human ductal carcinoma breast cell line (Homo sapiens, UniProt P03372); assay: MCF-7 ER degradation assay (cell based immuno-fluorescence); conditions: MCF-7 cells, 18-22 hours incubation, 50% reduction of ERα expression; single experiment or average of two or more; read-out: MCF-7 ER degradation IC50
T1 construct: endogenous in cells; host or cells: MCF-7
T1 sequence (P03372 1-595): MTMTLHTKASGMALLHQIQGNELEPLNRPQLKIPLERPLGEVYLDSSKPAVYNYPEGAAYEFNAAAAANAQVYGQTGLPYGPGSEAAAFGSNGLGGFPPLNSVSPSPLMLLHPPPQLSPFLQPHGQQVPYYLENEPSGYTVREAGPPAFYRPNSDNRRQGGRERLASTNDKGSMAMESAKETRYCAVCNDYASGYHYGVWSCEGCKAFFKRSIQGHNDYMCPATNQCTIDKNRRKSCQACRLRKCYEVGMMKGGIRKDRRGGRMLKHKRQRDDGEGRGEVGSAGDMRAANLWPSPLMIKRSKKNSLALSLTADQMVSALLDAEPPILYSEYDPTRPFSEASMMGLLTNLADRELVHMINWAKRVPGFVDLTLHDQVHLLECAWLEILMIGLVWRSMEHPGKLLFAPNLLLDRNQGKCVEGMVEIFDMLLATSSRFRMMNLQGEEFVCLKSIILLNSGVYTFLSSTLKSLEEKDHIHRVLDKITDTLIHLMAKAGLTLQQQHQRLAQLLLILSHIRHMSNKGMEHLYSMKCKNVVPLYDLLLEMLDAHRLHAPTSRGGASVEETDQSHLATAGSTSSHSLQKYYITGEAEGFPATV
Method in brief: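 MCF-7 human ductal carcinoma breast cells were seeded at 3.75×10^4 cells per mL (40 μL per well) in 384 well plates with phenol red free DMEM containing 2 mM L-Glutamine and 5% (v/v) Charcoal/Dextran treated foetal calf serum. After overnight culture, compounds were acoustically dispensed, incubated 18-22 hours, then cells were formaldehyde-fixed and immunostained for ERα.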

[2] = target: T2, recombinant human Estrogen Receptor alpha ligand binding domain, residues 307-554 (ER alpha-LBD (GST)) (Homo sapiens, UniProt P03372); assay: ERα binding assay (LanthaScreen TR-FRET competition); conditions: TR-FRET competition with Fluormone ES2 tracer, 4 hours at room temperature; single experiment or average of two or more
T2 construct: made in house
T2 sequence (P03372 307-554): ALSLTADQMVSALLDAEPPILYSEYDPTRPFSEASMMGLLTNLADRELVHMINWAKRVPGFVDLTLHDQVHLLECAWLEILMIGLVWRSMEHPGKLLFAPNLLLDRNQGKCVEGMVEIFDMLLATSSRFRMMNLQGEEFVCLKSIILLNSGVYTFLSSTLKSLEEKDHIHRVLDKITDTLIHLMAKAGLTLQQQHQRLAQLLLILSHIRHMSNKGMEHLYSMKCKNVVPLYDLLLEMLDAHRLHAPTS
Protocol: The ability of compounds to bind to isolated Estrogen Receptor Alpha Ligand binding domain (ER alpha-LBD (GST)) was assessed in competition assays using a LanthaScreen™ Time-Resolved Fluorescence Resonance Energy Transfer (TR-FRET) detection end-point. For the LanthaScreen TR-FRET endpoint, a suitable fluorophore (Fluormone ES2, ThermoFisher, Product code P2645) and recombinant human Estrogen Receptor alpha ligand binding domain, residues 307-554 (expressed and purified in-house) were used to measure compound binding. The assay principle is that ER alpha-LBD (GST) is added to a fluorescent ligand to form a receptor/fluorophore complex. A terbium-labelled anti-GST antibody (Product code PV3551) is used to indirectly label the receptor by binding to its GST tag, and competitive binding is detected by a test compound's ability to displace the fluorescent ligand, resulting in a loss of TR-FRET signal between the Tb-anti-GST antibody and the tracer. The assay was performed as follows with all reagent additions carried out using the Beckman Coulter BioRAPTR FRD microfluidic workstation: • 1. Acoustic dispense 120 nL of the test compound into a black low volume 384 well assay plates. • 2. Prepare 1×ER alpha-LBD/Tb-antiGST Ab in ES2 screening buffer and incubate for 15 minutes. • 3. Dispense 6 μL of the […] reagent into each well of the assay plate followed by 6 μL of Fluorophore reagent into each well of the assay plate • 4. Cover the assay plate to protect the reagents from light and evaporation, and incubate at room temperature for 4 hours. • 5. Excite at 337 nm and measure the fluorescent emission signal of each well at 490 nm and 520 nm using the BMG PheraSTAR.
Compounds were dosed directly from a compound source microplate containing serially diluted compound (4 wells containing 10 mM, […] and 10 nM final compound respectively) to an assay microplate using the Labcyte Echo 550. The Echo 550 is a liquid handler that uses acoustic technology to perform direct microplate-to-microplate transfers of DMSO compound solutions and the system can be programmed to transfer multiple small nL volumes of compound from the different source plate wells to give the desired serial dilution of compound in the assay which is then back-filled to normalise the DMSO concentration across the dilution range.
In total 120 nL of compound plus DMSO were added to each well and compounds were tested in a 12-point concentration response format over a final compound concentration range of 10, 2.917, 1.042, 0.2083, 0.1, 0.0292, 0.0104, 0.002083, 0.001, 0.0002917, 0.0001042, and 0.00001 μM respectively. TR-FRET dose response data obtained with each compound was exported into a suitable software package (such as Origin or Genedata) to perform curve fitting analysis. Competitive ER alpha binding was expressed as an IC50 value. This was determined by calculation of the concentration of compound that was required to give a 50% reduction in tracer compound binding to ER alpha-LBD.

| Compound | DC50 [1] [nM] | IC50 [2] [nM] |
| --- | --- | --- |
| Cc1ncsc1-c1ccc(CNC(=O)[C@@H]2C[C@@H](O)CN2C(=O)[C@@H](NC(=O)COCC#CC#CCOc2cc(F)c([C@@H]3c4[nH]c5ccccc5c4C[C@@H](C)N3CC(C)(C)F)c(F)c2)C(C)(C)C)cc1 [Example 50, (2S,4R)-1-((S)-2-(2-((6-(3,5-difluoro-4-((1R,3R)-2-(2-fluoro-2-methylpropyl)-3-methyl-2,3,4,9-tetrahydro-1H-pyrido[3,4-b]indol-1-yl)phenoxy)hexa-2,4-diyn-1-yl)oxy)acetamido)-3,3-dimethylbutanoyl)-4-hydroxy-N-(4-(4-methylthiazol-5-yl)benzyl)pyrrolidine-2-carboxamide] | 6.6 | 1.2 |
| Cc1ncsc1-c1ccc(CNC(=O)[C@@H]2C[C@@H](O)CN2C(=O)[C@@H](NC(=O)CNCCCCCOc2cc(F)c([C@@H]3c4[nH]c5ccccc5c4C[C@@H](C)N3CC(C)(C)F)c(F)c2)C(C)(C)C)cc1 [Example 89, (2S,4R)-1-((S)-2-(2-((5-(3,5-Difluoro-4-((1R,3R)-2-(2-fluoro-2-methylpropyl)-3-methyl-2,3,4,9-tetrahydro-1H-pyrido[3,4-b]indol-1-yl)phenoxy)pentyl)amino)acetamido)-3,3-dimethylbutanoyl)-4-hydroxy-N-(4-(4-methylthiazol-5-yl)benzyl)pyrrolidine-2-carboxamide] | 0.7 | 0.7 |
| Cc1ncsc1-c1ccc(CNC(=O)[C@@H]2C[C@@H](O)CN2C(=O)[C@@H](NC(=O)CCN2CCN(CCCCOc3cc(F)c([C@@H]4c5[nH]c6ccccc6c5C[C@@H](C)N4CC(C)(C)F)c(F)c3)CC2)C(C)(C)C)cc1 [Example 98, (2S,4R)-1-((S)-2-(3-(4-(4-(3,5-Difluoro-4-((1R,3R)-2-(2-fluoro-2-methylpropyl)-3-methyl-2,3,4,9-tetrahydro-1H-pyrido[3,4-b]indol-1-yl)phenoxy)butyl)piperazin-1-yl)propanamido)-3,3-dimethylbutanoyl)-4-hydroxy-N-(4-(4-methylthiazol-5-yl)benzyl)pyrrolidine-2-carboxamide] | 0.4 | 0.6 |
| Cc1ncsc1-c1ccc(CNC(=O)[C@@H]2C[C@@H](O)CN2C(=O)[C@@H](NC(=O)COCCOCCOCCOc2cc(F)c([C@@H]3c4[nH]c5ccccc5c4C[C@@H](C)N3C[C@H](C)C(=O)O)c(F)c2)C(C)(C)C)cc1 [Example 30, (S)-3-((1R,3R)-1-(2,6-Difluoro-4-(((S)-13-((2S,4R)-4-hydroxy-2-((4-(4-methylthiazol-5-yl)benzyl)carbamoyl)pyrrolidine-1-carbonyl)-14,14-dimethyl-11-oxo-3,6,9-trioxa-12-azapentadecyl)oxy)phenyl)-3-methyl-1,3,4,9-tetrahydro-2H-pyrido[3,4-b]indol-2-yl)-2-methylpropanoic Acid] | 174 | 4.1 |
| Cc1ncsc1-c1ccc(CNC(=O)[C@@H]2C[C@@H](O)CN2C(=O)[C@@H](NC(=O)CCCCN2CCN(CCOc3cc(F)c([C@@H]4c5[nH]c6ccccc6c5C[C@@H](C)N4CC(C)(C)F)c(F)c3)CC2)C(C)(C)C)cc1 [Example 102, (2S,4R)-1-((S)-2-(5-(4-(2-(3,5-difluoro-4-((1R,3R)-2-(2-fluoro-2-methylpropyl)-3-methyl-2,3,4,9-tetrahydro-1H-pyrido[3,4-b]indol-1-yl)phenoxy)ethyl)piperazin-1-yl)pentanamido)-3,3-dimethylbutanoyl)-4-hydroxy-N-(4-(4-methylthiazol-5-yl)benzyl)pyrrolidine-2-carboxamide] | 0.9 | 0.6 |
| Cc1ncsc1-c1ccc(CNC(=O)[C@@H]2C[C@@H](O)CN2C(=O)[C@@H](NCc2ccc(COc3cc(F)c([C@@H]4c5[nH]c6ccccc6c5C[C@@H](C)N4CC(C)(C)F)c(F)c3)cc2)C(C)(C)C)cc1 [Example 35, (2S,4R)-1-((S)-2-((4-((3,5-difluoro-4-((1R,3R)-2-(2-fluoro-2-methylpropyl)-3-methyl-2,3,4,9-tetrahydro-1H-pyrido[3,4-b]indol-1-yl)phenoxy)methyl)benzyl)amino)-3,3-dimethylbutanoyl)-4-hydroxy-N-(4-(4-methylthiazol-5-yl)benzyl)pyrrolidine-2-carboxamide] | 9.1 | 1 |
| Cc1ncsc1-c1ccc(CNC(=O)[C@@H]2C[C@@H](O)CN2C(=O)[C@@H](NC(=O)CCCCN(C)CCN(C)CCOc2cc(F)c([C@@H]3c4[nH]c5ccccc5c4C[C@@H](C)N3CC(C)(C)F)c(F)c2)C(C)(C)C)cc1 [Example 108, (2S,4R)-1-((S)-2-(5-((2-((2-(3,5-difluoro-4-((1R,3R)-2-(2-fluoro-2-methylpropyl)-3-methyl-2,3,4,9-tetrahydro-1H-pyrido[3,4-b]indol-1-yl)phenoxy)ethyl)(methyl)amino)ethyl)(methyl)amino)pentanamido)-3,3-dimethylbutanoyl)-4-hydroxy-N-(4-(4-methylthiazol-5-yl)benzyl)pyrrolidine-2-carboxamide] | 1.1 | 0.6 |
| Cc1ncsc1-c1ccc(CNC(=O)[C@@H]2C[C@@H](O)CN2C(=O)[C@@H](NC(=O)COC2CCN(CCCNC(=O)/C=C/c3cc(F)c([C@@H]4c5[nH]c6ccccc6c5C[C@@H](C)N4CC(C)(C)F)c(F)c3)CC2)C(C)(C)C)cc1 [Example 65, (2S,4R)-1-((S)-2-(2-((1-(3-((E)-3-(3,5-difluoro-4-((1R,3R)-2-(2-fluoro-2-methylpropyl)-3-methyl-2,3,4,9-tetrahydro-1H-pyrido[3,4-b]indol-1-yl)phenyl)acrylamido)propyl)piperidin-4-yl)oxy)acetamido)-3,3-dimethylbutanoyl)-4-hydroxy-N-(4-(4-methylthiazol-5-yl)benzyl)pyrrolidine-2-carboxamide, Trifluoroacetic Acid] | 4.5 | 1.1 |
| Cc1ncsc1-c1ccc(CNC(=O)[C@@H]2C[C@@H](O)CN2C(=O)[C@@H](NC(=O)CCCCCNCCCCOc2cc(F)c([C@@H]3c4[nH]c5ccccc5c4C[C@@H](C)N3CC(C)(C)F)c(F)c2)C(C)(C)C)cc1 [Example 145, (2S,4R)-1-((S)-2-(6-((4-(3,5-Difluoro-4-((1R,3R)-2-(2-fluoro-2-methylpropyl)-3-methyl-2,3,4,9-tetrahydro-1H-pyrido[3,4-b]indol-1-yl)phenoxy)butyl)amino)hexanamido)-3,3-dimethylbutanoyl)-4-hydroxy-N-(4-(4-methylthiazol-5-yl)benzyl)pyrrolidine-2-carboxamide] | 2.7 | 1.1 |
